According to patent US10590086B2, “Pharmaceutical compound” (IOmet Pharma Ltd., priority 2014, dated 2020):

Tests used:
[1] = biological target: T1, TDO (Homo sapiens, UniProt P48775); assay: hTDO biochemical coupled assay; conditions: 330 μM L-tryptophan, 17 minutes, room temperature; read-out: hTDO biochemical assay pIC50 (converted)
[2] = biological target: T2, IDO (Homo sapiens, UniProt P14902); assay: hIDO biochemical coupled assay; conditions: 45 μM L-tryptophan, read-out: hIDO biochemical assay pIC50 (converted)
T2 sequence (P14902 whole entry): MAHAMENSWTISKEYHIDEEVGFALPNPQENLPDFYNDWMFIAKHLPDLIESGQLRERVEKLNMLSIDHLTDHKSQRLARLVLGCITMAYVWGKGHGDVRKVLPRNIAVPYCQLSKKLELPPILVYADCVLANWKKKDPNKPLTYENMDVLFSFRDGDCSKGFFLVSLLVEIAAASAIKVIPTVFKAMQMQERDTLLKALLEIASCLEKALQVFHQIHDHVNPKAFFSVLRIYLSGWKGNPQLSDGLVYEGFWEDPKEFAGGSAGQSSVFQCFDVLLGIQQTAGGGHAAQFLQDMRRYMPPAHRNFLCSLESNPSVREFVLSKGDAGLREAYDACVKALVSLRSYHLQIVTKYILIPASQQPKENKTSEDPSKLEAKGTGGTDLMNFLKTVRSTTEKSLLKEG

[3] = biological target: T1, TDO; assay: A172 kynurenine cell-based assay; set-up: This assay utilised cancer cells which expressed either TDO or IDO; endogenous in cells; host or cells: A172 (human glioblastoma); conditions: A172 human glioblastoma cells, 48 hours, read-out: A172 Kynurenine cell based assay pIC50 (converted)
How it was run: (§1)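 First, A172 or SKOV3 cells were seeded in phenol red-free RPMI, 10% FCS, 2 mM L-glutamine, 500 μM L-tryptophan; SKOV3 received 500 ng/ml IFN-γ for IDO induction. Next came compound exposure, 48 hours, 37° C. Finally, cells were spun out, supernatant treated with Erhlich's reagent, absorbance read at 490 nm.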

[4] = biological target: T2, IDO; assay: SKOV3 kynurenine cell-based assay (IDO induced by IFN-γ); set-up: IDO expression was induced in the SKOV3 cells by the addition of 500 ng/ml IFN-γ; endogenous in cells; host or cells: SKOV3 (human ovarian adenocarcinoma), induced with IFN-γ; conditions: 48 hours, read-out: SKOV3 Kynurenine cell based assay pIC50 (converted)
How it was run: as §1

[5] = SKOV3 human ovarian adenocarcinoma cells, 500 ng/ml IFN-γ, 500 μM L-tryptophan

T1 sequence (P48775 whole entry): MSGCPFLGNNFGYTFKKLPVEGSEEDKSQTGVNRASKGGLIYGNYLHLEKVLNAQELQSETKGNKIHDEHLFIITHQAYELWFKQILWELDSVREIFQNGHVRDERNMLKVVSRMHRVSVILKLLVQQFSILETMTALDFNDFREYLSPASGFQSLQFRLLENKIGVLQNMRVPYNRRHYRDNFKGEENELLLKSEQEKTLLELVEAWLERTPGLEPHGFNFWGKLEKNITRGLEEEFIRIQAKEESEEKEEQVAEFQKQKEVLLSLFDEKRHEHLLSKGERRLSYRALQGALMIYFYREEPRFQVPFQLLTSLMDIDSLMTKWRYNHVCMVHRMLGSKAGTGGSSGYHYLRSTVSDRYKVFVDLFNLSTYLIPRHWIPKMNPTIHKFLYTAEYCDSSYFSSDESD

Compound	IC50 [1] [µM]	IC50 ([2]; 17 minutes, room temperature) [µM]	IC50 ([3]; 500 μM L-tryptophan) [µM]	IC50 [4, 5] [µM]	IC50 [2] [µM]	IC50 [3] [µM]	IC50 ([4]; SKOV3 cells, IDO induced by 500 ng/ml IFN-γ) [µM]
Cc1nc2c(n1C)CCN(c1cc(Cl)cc3[nH]ncc13)C2 [Compound 252]	< 3.16	> 100	< 3.16	32.4 to 100			
CC1(C)CN(c2cc(OC(F)(F)F)cc3[nH]ncc23)CCN1S(C)(=O)=O [Compound 219]	< 3.16	3.24 to 31.6	< 3.16	3.24 to 31.6			
Clc1cc(N2CCC(c3ccccc3)CC2)c2cn[nH]c2c1 [Compound 183]	< 3.16	3.24 to 31.6	< 3.16	3.24 to 31.6			
CN(C)C(=O)c1ccc(-c2cc(Cl)cc3[nH]ncc23)cc1 [Compound 255]	3.24 to 31.6	> 100	< 3.16	3.24 to 31.6			
Cc1nc2c([nH]1)CN(c1cc(Cl)cc3[nH]ncc13)CC2 [Compound 211]	< 3.16	32.4 to 100	3.24 to 31.6	32.4 to 100			
Cc1noc(C)c1S(=O)(=O)Nc1cccc2[nH]ncc12 [Compound 3]	3.24 to 31.6	> 100					
CC(=O)N1CCN(c2ccc3[nH]ncc3c2)CC1 [Compound 41]	32.4 to 100	> 100	3.24 to 31.6	> 100			
COc1cc(S(C)(=O)=O)ccc1-c1cc(Cl)cc2[nH]ncc12 [Compound 266]	< 3.16	> 100	< 3.16	3.24 to 31.6			
O=C1NC(=O)C2(CCN(c3cc(Cl)cc4[nH]ncc34)CC2)N1 [Compound 137]	< 3.16	< 3.16	< 3.16	< 3.16			
CS(=O)(=O)N1CCC(c2cc(C3CCCC3)cc3[nH]ncc23)CC1 [Compound 218]	> 100	32.4 to 100	> 100	32.4 to 100			
Clc1cc(N2C[C@H]3CC[C@@H](C2)NC3)c2cn[nH]c2c1 [Compound 448]	< 3.16	3.24 to 31.6	< 3.16	> 100			
CS(=O)(=O)N1CCN(c2cc(F)cc3[nH]ncc23)CC1 [Compound 44]	< 3.16	> 100					
Cn1ncc2cccc(N3CCN(S(C)(=O)=O)CC3)c21 [Compound 37]	32.4 to 100	32.4 to 100					
O=S(=O)(Nc1cccc2[nH]ncc12)c1ccccc1 [Compound 2]	32.4 to 100	> 100					
CC(C)CS(=O)(=O)Nc1cccc2[nH]ncc12 [Compound 8]	3.24 to 31.6	> 100					
O=C(Nc1cccc2[nH]ncc12)C1CCOCC1 [Compound 5]	32.4 to 100	> 100					
CN(C)S(=O)(=O)Nc1cccc2[nH]ncc12 [Compound 7]	32.4 to 100	> 100					
CN1C(=O)CCC12CCN(c1cc(Cl)cc3[nH]ncc13)CC2 [Compound 245]		3.24 to 31.6	< 3.16	3.24 to 31.6			
CS(=O)(=O)N1CC2CCC1CN2c1cc(Cl)cc2[nH]ncc12 (centres unmarked) [Compound 230]		> 100	< 3.16	32.4 to 100			
CC(=O)N(C)c1ccc(-c2cc(Cl)cc3[nH]ncc23)cc1 [Compound 248]		3.24 to 31.6	< 3.16	3.24 to 31.6			
CN(c1ccc(-c2cc(Cl)cc3[nH]ncc23)cc1)S(C)(=O)=O [Compound 239]		32.4 to 100	< 3.16	3.24 to 31.6			
CC(C)CNC(=O)c1cc(Cl)cc2[nH]ncc12 [Compound 238]		> 100	3.24 to 31.6	32.4 to 100			
CC(=O)N1CCN(c2cc(OC(F)(F)F)cc3[nH]ncc23)CC1 [Compound 244]		> 100	32.4 to 100	32.4 to 100			
CN(C1CCCN(c2cc(Cl)cc3[nH]ncc23)C1)S(C)(=O)=O (centres unmarked) [Compound 242]		> 100	3.24 to 31.6	32.4 to 100			
CC(=O)NC1CCC(c2cc(Cl)cc3[nH]ncc23)CC1 (mixture of isomers) [Compound 155, N-(4-(6-chloro-1H-indazol-4-yl)cyclohexyl) acetamide]			< 3.16	3.24 to 31.6	191	0.24	12.3
CS(=O)(=O)NCCOc1cccc2[nH]ncc12 [Compound 35]	3.24 to 31.6	> 100					
COC(=O)C1CCN(c2cc(Cl)cc3[nH]ncc23)CC1 [Compound 234]		3.24 to 31.6	< 3.16	32.4 to 100			
CC(=O)N1CCN(c2cccc3cnn(C)c23)CC1 [Compound 38]	32.4 to 100	32.4 to 100					
O=C(Nc1cccc2[nH]ncc12)c1ccccc1 [Compound 9]	32.4 to 100	> 100					
O=C(NCc1ccccc1)c1cc(Cl)cc2[nH]ncc12 [Compound 237]		> 100	32.4 to 100	32.4 to 100			

Continued, values first:

IC50 [1] [µM]	IC50 ([2]; 17 minutes, room temperature) [µM]	IC50 ([3]; 500 μM L-tryptophan) [µM]	IC50 [4, 5] [µM]	IC50 [2] [µM]	IC50 [3] [µM]	IC50 ([4]; SKOV3 cells, IDO induced by 500 ng/ml IFN-γ) [µM]	Compound
< 3.16	32.4 to 100	< 3.16	> 100				Clc1cc(N2CCC(N3CCOCC3)CC2)c2cn[nH]c2c1 [Compound 451]
< 3.16	< 3.16	< 3.16	< 3.16				O=C1NC(=O)C2(CCN(c3cc(Br)cc4[nH]ncc34)CC2)N1 [Compound 290]
< 3.16	> 100	3.24 to 31.6	3.24 to 31.6				CN(C)C(=O)CC1CCN(c2cc(Cl)cc3[nH]ncc23)CC1 [Compound 362]
< 3.16	> 100	< 3.16	> 100				CC(=O)NCCN1CCN(c2cc(Cl)cc3[nH]ncc23)CC1 [Compound 379]
3.24 to 31.6	> 100	> 100	32.4 to 100				CC1(C)CN(c2cc(Cl)cc3c(N)noc23)CCN1S(C)(=O)=O [Compound 317]
3.24 to 31.6	> 100	3.24 to 31.6	3.24 to 31.6				Cc1nc2c(n1C)CN(c1cc(Cl)cc3[nH]ncc13)CC2 [Compound 356]
< 3.16	< 3.16	< 3.16	< 3.16				Cn1ccnc1CN1C(=O)NC2(CCN(c3cc(Cl)cc4[nH]ncc34)CC2)C1=O [Compound 408]
< 3.16	< 3.16	< 3.16	< 3.16				CN(C)CCN1C(=O)NC2(CCN(c3cc(Cl)cc4[nH]ncc34)CC2)C1=O [Compound 392]
< 3.16	> 100	< 3.16	3.24 to 31.6				CN(C)S(=O)(=O)c1ccc(-c2cc(Cl)cc3[nH]ncc23)cc1 [Compound 277]
< 3.16	3.24 to 31.6	< 3.16	3.24 to 31.6				CC(=O)NC1CCN(c2cc(Cl)cc3[nH]ncc23)CC1(C)C (centres unmarked) [Compound 335]
< 3.16	> 100	< 3.16	> 100				Cc1nc2c(o1)CN(c1cc(C(F)(F)F)cc3[nH]ncc13)CC2(C)C [Compound 434]
< 3.16	32.4 to 100	< 3.16	> 100				COC(=O)CN1CCN(c2cc(Cl)cc3[nH]ncc23)CC1(C)C [Compound 414]
< 3.16	3.24 to 31.6	3.24 to 31.6	3.24 to 31.6				CCc1cc(C2CCN(S(C)(=O)=O)CC2)c2cn[nH]c2c1 [Compound 326]
< 3.16	3.24 to 31.6	< 3.16	< 3.16				CC(=O)N1CCC2(CC1)CCN(c1cc(Cl)cc3[nH]ncc13)CC2 [Compound 352]
< 3.16	3.24 to 31.6	< 3.16	3.24 to 31.6				NS(=O)(=O)N1CC2(CCN(c3cc(Cl)cc4[nH]ncc34)CC2)C1 [Compound 367]
< 3.16	< 3.16	< 3.16	< 3.16				CCN1C(=O)NC2(CCN(c3cc(Cl)cc4[nH]ncc34)CC2)C1=O [Compound 315]
< 3.16	> 100	< 3.16	3.24 to 31.6				CNC(=O)CC1CCN(c2cc(Cl)cc3[nH]ncc23)CC1 [Compound 364]
< 3.16	> 100	< 3.16	> 100				CNC(=O)CN1CCC(c2cc(Cl)cc3[nH]ncc23)CC1 [Compound 401]
3.24 to 31.6		3.24 to 31.6	3.24 to 31.6				CS(=O)(=O)N1CCN(c2cc(Cl)cc3[nH]ncc23)C2CCCCC21 (single isomer, unassigned) [Compound 386]
< 3.16	< 3.16	< 3.16					O=C1NC2(CCN(c3cc(Cl)cc4[nH]ncc34)CC2)C(=O)N1c1ccccc1 [Compound 456]
	> 100	< 3.16	32.4 to 100				OC(c1cc(Cl)cc2[nH]ncc12)C1CCCCC1 (centres unmarked) [Compound 293]
